The source made the active and inactive calls. The calls are words filed in the database; no cut-off is given here.
Experiments:
Format in all cases: functional, cell-based
[1] = test system: U-937; assay: Antitumor activity against human U-937 cells assessed as reduction in cell viability incubated for 72 hrs; settings: U-937, 72 h
[2] = test system: NB-4; assay: Antitumor activity against human NB4 cells assessed as reduction in cell viability incubated for 72 hrs; settings: NB-4, 72 h
[3] = test system: K562; assay: Antitumor activity against human K562 cells assessed as reduction in cell viability incubated for 72 hrs; settings: K562, 72 h
[4] = test system: HL-60; assay: Antitumor activity against human HL-60 cells assessed as reduction in cell viability incubated for 72 hrs; settings: HL-60, 72 h
[5] = test system: SU-DHL-2; assay: Antitumor activity against human SUDHL2 cells assessed as reduction in cell viability incubated for 72 hrs; settings: SU-DHL-2, 72 h
[6] = test system: THP-1; assay: Antitumor activity against human THP-1 cells assessed as reduction in cell viability incubated for 72 hrs; settings: THP-1, 72 h
[7] = test system: KG-1; assay: Antitumor activity against human KG-1 cells assessed as reduction in cell viability incubated for 72 hrs; settings: KG-1, 72 h
[8] = test system: SK-OV-3; assay: Antitumor activity against taxol-resistant human SK-OV-3 cells assessed as reduction in cell viability incubated for 72 hrs; settings: SK-OV-3, 72 h
[9] = test system: SK-OV-3; assay: Antitumor activity against human SK-OV-3 cells assessed as reduction in cell viability incubated for 72 hrs; settings: SK-OV-3, 72 h
[10] = test system: HL-60; assay: Induction of differentiation of human HL-60 cells assessed as increase in CD11b expression at 0.5 uM measured after 72 hrs by flow cytometric analysis
[11] = test system: U-937; assay: Induction of differentiation of human U-937 cells assessed as increase in CD11b expression at 0.5 uM measured after 72 hrs by flow cytometric analysis
[12] = test system: NB-4; assay: Induction of differentiation of human NB4 cells assessed as increase in CD11b expression at 0.5 uM measured after 72 hrs by flow cytometric analysis
[13] = test system: KG-1; assay: Induction of differentiation of human KG-1 cells assessed as increase in CD11b expression at 0.5 uM measured after 72 hrs by flow cytometric analysis
[14] = test system: THP-1; assay: Induction of differentiation of human THP1 cells assessed as increase in CD11b expression at 0.5 uM measured after 72 hrs by flow cytometric analysis

Structure (SMILES)	IC50 [1] [µM]	IC50 [2] [µM]	IC50 [3] [µM]	IC50 [4] [µM]	IC50 [5] [µM]	IC50 [6] [µM]	IC50 [7] [µM]	IC50 [8] [µM]	IC50 [9] [µM]	Activity [10]	Activity [11]	Activity [12]	Activity [13]	Activity [14]
O=C1O[C@@]23C[C@@H](C=CC2=C1C(O)c1ccc([N+](=O)[O-])cc1[N+](=O)[O-])N1CCCC[C@H]13 (stereo not given in full)	6.36	12	10.8	10.8	18.3	18	3.08	8.89	7.86	–	–	–	–	–
Cc1ccc(C(O)C2=C3C=C[C@@H]4C[C@@]3(OC2=O)[C@@H]2CCCCN42)cc1 (stereo not given in full)	11.1	13.2	8.35	11.5	19.4	12.7	5.58	8.42	7.58	–	–	–	–	–
CS(=O)(=O)c1ccc(C(O)C2=C3C=C[C@@H]4C[C@@]3(OC2=O)[C@@H]2CCCCN42)cc1 (stereo not given in full)	27.3	12.8	17.7	17.2	20.8	25.9	4.84	12.5	11.6	–	–	–	–	–
O=C1O[C@@]23C[C@@H](C=CC2=C1C(O)c1csc2ccccc12)N1CCCC[C@H]13 (stereo not given in full)	29.6	4.45	2.37	20.4	27.9	15.6	6.14	20.7	22.2	–	–	–	–	–
N#Cc1ccc(C(O)C2=C3C=C[C@@H]4C[C@@]3(OC2=O)[C@@H]2CCCCN42)cc1 (stereo not given in full)	2.2	3.84	3.11	7.16	19.3	15.6	2.57	4.54	4.18	–	–	–	–	–
O=C1O[C@@]23C[C@@H](C=CC2=C1C(O)c1ccccc1Cl)N1CCCC[C@H]13 (stereo not given in full)	3.81	3.18	5.37	7.42	16.4	19.2	3.8	5.37	4.52	–	–	–	–	–
O=C1O[C@@]23C[C@@H](C=CC2=C1C(O)c1ccc(C(F)(F)F)cc1)N1CCCC[C@H]13 (stereo not given in full)	3.68	1.99	6.06	4.17	12.1	6.16	1.83	14.8	13.5	–	–	–	–	–
N#Cc1cccc(C(O)C2=C3C=C[C@@H]4C[C@@]3(OC2=O)[C@@H]2CCCCN42)c1 (stereo not given in full)	1.79	7.7	6.02	9.98	20.1	16.1	1.95	7.61	6.68	–	–	–	–	–
O=C1O[C@@]23C[C@@H](C=CC2=C1C(O)c1ccc(-c2ccccc2)cc1)N1CCCC[C@H]13 (stereo not given in full)	3.63	3.32	3.15	6.76	9.59	9.15	4.77	13.8	14.8	–	–	–	–	–
O=C1O[C@@]23C[C@@H](C=CC2=C1C(O)c1ccc(Br)cc1)N1CCCC[C@H]13 (stereo not given in full)	10.8	6.18	2.58	9.92	15.2	15.5	2.27	12.5	14.2	–	–	–	–	–
O=C1O[C@@]23C[C@@H](C=CC2=C1C(O)c1ccc(F)cc1)N1CCCC[C@H]13 (stereo not given in full)	16.6	10.3	17.3	15.2	15.3	12.4	2.12	8.32	6.84	–	–	–	–	–
O=C1O[C@@]23C[C@@H](C=CC2=C1C(O)c1cccc(F)c1)N1CCCC[C@H]13 (stereo not given in full)	8.73	4.01	4.45	8.73	16	12	3.98	6.52	3.42	–	–	–	–	–
O=C1C=C2C=C[C@H]3C[C@@]2(O1)[C@@H]1CCCCN13	14.9	20.4	38.1	21.2	> 50	> 50	> 50	36.4	35.2	–	–	–	–	–
O=C1O[C@@]23C[C@@H](C=CC2=C1C(O)c1cccc([N+](=O)[O-])c1)N1CCCC[C@H]13 (stereo not given in full)	4.64	3.01	2.69	6.2	9.28	12	1.98	3.5	3.11	Active	Active	Active	Active	Active
O=C1O[C@@]23CC(C=CC2=C1C(O)c1ccccc1[N+](=O)[O-])N1CCCC[C@H]13 (single isomer, unassigned)	8.05	3.3	3.7	9.2	16.1	10.7	4.18	9.91	10.2	–	–	–	–	–
O=C1O[C@@]23C[C@@H](C=CC2=C1C(O)c1ccc(Cl)cc1)N1CCCC[C@H]13 (stereo not given in full)	7.56	10.1	4.47	11.8	18.3	14.8	3.95	11	9.94	–	–	–	–	–
O=C1O[C@@]23C[C@@H](C=CC2=C1C(O)c1nc2ccccc2s1)N1CCCC[C@H]13 (stereo not given in full)	13.8	–	–	–	18	16.4	–	–	21	–	–	–	–	–
O=C1O[C@@]23C[C@@H](C=CC2=C1C(O)c1ccccc1)N1CCCC[C@H]13 (stereo not given in full)	9.23	13.3	16.9	14.7	19	20.7	9.12	15.1	14.5	–	–	–	–	–
O=C1O[C@@]23C[C@@H](C=CC2=C1C(O)c1ccccc1Br)N1CCCC[C@H]13 (stereo not given in full)	4.38	4.67	1.68	3.52	20.7	15.5	4.11	5.59	7.76	–	–	–	–	–
CC[C@@]1(O)C(=O)OCc2c1cc1n(c2=O)Cc2cc3ccccc3nc2-1 [CAMPTOTHECIN]	1.81	2.01	0.58	0.91	0.94	1.89	2.31	4.86	–	–	–	–	–	–
Cc1ccccc1C(O)C1=C2C=C[C@@H]3C[C@@]2(OC1=O)[C@@H]1CCCCN31 (stereo not given in full)	8.04	5.01	12.7	13.4	27.2	26.9	10	19.3	20.1	–	–	–	–	–
CC(C)(C)c1ccc(C(O)C2=C3C=C[C@@H]4C[C@@]3(OC2=O)[C@@H]2CCCCN42)cc1 (stereo not given in full)	16.7	15.9	20.1	16	20.9	16.1	5.77	17	14.9	–	–	–	–	–
O=C1O[C@@]23C[C@@H](C=CC2=C1C(O)c1ccccc1F)N1CCCC[C@H]13 (stereo not given in full)	4.22	10.9	7.14	9.47	20.3	3.34	3.54	12.8	10.2	–	–	–	–	–
O=C1O[C@@]23C[C@@H](C=CC2=C1C(O)c1ccc(F)cc1F)N1CCCC[C@H]13 (stereo not given in full)	6.99	5.8	10.3	7.66	15.3	15.8	2.21	14.9	14.7	–	–	–	–	–
